Read-outs that look alike come from different tables or passages of the source.
Experiments:
[1] = biological target: T1, CDK2/CycE (Homo sapiens, UniProt P24941); assay: CDK2/CycE high ATP kinase assay (TR-FRET, Method 2b); type: biochemical; settings: 2 mM ATP
T1 construct: GST; purchased ProQinase GmbH (Freiburg, Germany); host or cells: insect cells (Sf9)
Description: 2b. CDK2/CycE High ATP Kinase Assay:
CDK2/CycE-inhibitory activity of compounds of the present invention at 2 mM adenosine-tri-phosphate (ATP) was quantified employing the CDK2/CycE TR-FRET (TR-FRET=Time Resolved Fluorescence Resonance Energy Transfer) assay as described in the following paragraphs.
Recombinant fusion proteins of GST and human CDK2 and of GST and human CycE, expressed in insect cells (Sf9) and purified by Glutathion-Sepharose affinity chromatography, were purchase from ProQinase GmbH (Freiburg, Germany). As substrate for the kinase reaction biotinylated peptide biotin-Ttds-YISPLKSPYKISEG (C-terminus in amid form) was used which can be purchased e.g. from the company JERINI peptide technologies (Berlin, Germany).
For the assay 50 nl of a 100 fold concentrated solution of the test compound in DMSO was pipetted into a black low volume 384 well microtiter plate (Greiner Bio-One, Frickenhausen, Germany), 2 μl of a solution of CDK2/CycE in aqueous assay buffer [50 mM Tris/HCl pH 8.0, 10 mM MgCl2, 1.0 mM dithiothreitol, 0.1 mM sodium ortho-vanadate, 0.01% (v/v) Nonidet-P40 (Sigma)] were added and the mixture was incubated for 15 min at 22° C. to allow pre-binding of the test compounds to the enzyme before the start of the kinase reaction. […] The concentration of CDK2/CycE was adjusted depending of the activity of the enzyme lot and was chosen appropriate to have the assay in the linear range, typical concentrations were in the range of 15 ng/ml. The reaction was stopped by the addition of 5 μl of a solution of TR-FRET detection reagents (0.2 μM streptavidine-XL665 [Cisbio Bioassays, Codolet, France] and 1 nM anti-RB(pSer807/pSer811)-antibody from BD Pharmingen [#558389] and 1.2 nM LANCE EU-W1024 labeled anti-mouse IgG antibody [Perkin-Elmer, product no. AD0077, as an alternative a Terbium-cryptate-labeled anti-mouse IgG antibody from Cisbio Bioassays can be used]) in an aqueous EDTA-solution (100 mM EDTA, 0.2% (w/v) bovine serum albumin in 100 mM HEPES pH 7.5).
The resulting mixture was incubated 1 h at 22° C. to allow the formation of complex between the phosphorylated biotinylated peptide and the detection reagents. Subsequently the amount of phosphorylated substrate was evaluated by measurement of the resonance energy transfer from the Eu-chelate to the streptavidine-XL. Therefore, the fluorescence emissions at 620 nm and 665 nm after excitation at 350 nm were measured in a TR-FRET reader, e.g. a Rubystar (BMG Labtechnologies, Offenburg, Germany) or a Viewlux (Perkin-Elmer). The ratio of the emissions at 665 nm and at […] was taken as the measure for the amount of phosphorylated substrate. The data were normalised (enzyme reaction without inhibitor=0% inhibition, all other assay components but no enzyme=100% inhibition).

[2] = tested on: B16F10 cells; assay: Proliferation assay B16F10; type: cell-based, mouse; settings: 4 days, crystal violet, read-out: Inhibition of B16F10 cell proliferation IC50
Description: Cultivated tumour cells (HeLa, human cervical tumour cells, ATCC CCL-2; NCI-H460, human non-small cell lung carcinoma cells, ATCC HTB-177; A2780, human ovarian carcinoma cells, ECACC #93112519; DU 145, hormone-independent human prostate carcinoma cells, ATCC HTB-81; HeLa-MaTu-ADR, multidrug-resistant human cervical carcinoma cells, EPO-GmbH Berlin; Caco-2, human colorectal carcinoma cells, ATCC HTB-37; B16F10, mouse melanoma cells, ATCC CRL-6475) were plated at a density of 5,000 cells/well (DU145, HeLa-MaTu-ADR), 3,000 cells/well (NCI-H460, HeLa), 2,500 cells/well (A2780), 1,500 cells/well (Caco-2), or 1,000 cells/well (B16F10) in a 96-well multititer plate in 200 μL of their respective growth medium supplemented 10% fetal calf serum. After 24 hours, the cells of one plate (zero-point plate) were stained with crystal violet (see below), while the medium of the other plates was replaced by fresh culture medium (200 μl), to which the test substances were added in various concentrations (0 μM, as well as in the range of 0.001-10 μM). The cells were incubated for 4 days in the presence of test substances. Cell proliferation was determined by staining the cells with crystal violet: the cells were fixed by adding 20 μl/measuring point of an 11% glutaric aldehyde solution for 15 minutes at room temperature. After three washing cycles of the fixed cells with water, the plates were dried at room temperature. The cells were stained by adding 100 μl/measuring point of a 0.1% crystal violet solution (pH 3.0). After three washing cycles of the stained cells with water, the plates were dried at room temperature. The dye was dissolved by adding 100 μl/measuring point of a 10% acetic acid solution. The extinction was determined by photometry at a wavelength of 595 nm. The change of cell number, in percent, was calculated by normalization of the measured values to the extinction values of the zero-point plate (=0%) and the extinction of the untreated (0 μm) cells (=100%). The IC50 values (inhibitory concentration at 50% of maximal effect) were determined by means of a 4 parameter fit. Non-adherent MOLM-13 human acute myeloid leukemia cells (DSMZ ACC 554) were seeded at a density of 5,000 cells/well in a 96-well multititer plate in 100 μL of growth medium supplemented 10% fetal calf serum. After 24 hours, cell viability of one plate (zero-point plate) was determined with the Cell Titre-Glo Luminescent Cell Viability Assay (Promega), while 50 μL of test compound containing medium was added to the wells of the other plates (final concentrations in the range of 0.001-1 μM and DMSO controls). Cell viability was assessed after 72-hour exposure with the Cell Titre-Glo Luminescent Cell Viability Assay (Promega). IC50 values (inhibitory concentration at 50% of maximal effect) were determined by means of a 4 parameter fit on measurement data which were normalized to vehicle (DMSO) treated cells (=100%) and measurement readings taken immediately before compound exposure (=0%).

Structure (SMILES): CS(=N)(=O)Cc1cc2nc(c1)OCCCOc1cc(F)ccc1-c1cc(ncc1F)N2 (single isomer, unassigned; enantiomer 1) [Example 6, 15,19-Difluoro-8-[(S-methylsulfonimidoyl)methyl]-3,4-dihydro-2H,11H-10,6-(azeno)-12,16-(metheno)-1,5,11,13-benzodioxadiazacyclooctadecine; Enantiomer 1]
- IC50 [1]: 0.0383 µM
- IC50 ([2]; Mus musculus, B16-F10, 96 h): 0.007 µM

Structure (SMILES): C[S+]([O-])Cc1cc2nc(c1)OCCCOc1cc(F)ccc1-c1cc(ncc1F)N2 (racemic) [Example 4, (rac)-15,19-Difluoro-8-[(methylsulfinyl)methyl]-3,4-dihydro-2H,11H-10,6-(azeno)-12,16-(metheno)-1,5,11,13-benzodioxadiazacyclooctadecine]
- IC50 [1]: 0.0321 µM
- IC50 ([2]; Mus musculus, B16-F10, 96 h): 0.014 µM

Structure (SMILES): CS(=N)(=O)Cc1cc2cc(c1)OCCCCOc1cc(F)ccc1-c1nc(ncc1F)N2 (racemic) [Example 1, (rac)-16,20-Difluoro-9-[(S-methylsulfonimidoyl)methyl]-2,3,4,5-tetrahydro-12H-13,17-(azeno)-11,7-(metheno)-1,6,12,14-benzodioxadiazacyclononadecine]
- IC50 [1]: 0.216 µM
- IC50 ([2]; Mus musculus, B16-F10, 96 h): 0.014 µM

Structure (SMILES): C[S+]([O-])Cc1cc2nc(c1)OCCOc1cc(F)ccc1-c1cc(ncc1F)N2 (racemic) [Example 10, (rac)-14,18-difluoro-7-[(methylsulfinyl)methyl]-2,3-dihydro-10H-9,5-(azeno)-11,15-(metheno)-1,4,10,12-benzodioxadiazacycloheptadecine]
- IC50 [1]: 3.5 µM
- IC50 ([2]; Mus musculus, B16-F10, 96 h): 0.41 µM

Structure (SMILES): CS(=N)(=O)Cc1cc2nc(c1)OCCOc1cc(F)ccc1-c1cc(ncc1F)N2 (racemic) [Example 11, (rac)-14,18-difluoro-7-[(S-methylsulfonimidoyl)methyl]-2,3-dihydro-10H-9,5-(azeno)-11,15-(metheno)-1,4,10,12-benzodioxadiazacycloheptadecine]
- IC50 [1]: 2.12 µM
- IC50 ([2]; Mus musculus, B16-F10, 96 h): 0.2 µM

Structure (SMILES): C[S+]([O-])Cc1cc2nc(c1)OCCCCOc1cc(F)ccc1-c1cc(ncc1F)N2 (racemic) [Example 13, (rac)-16,20-difluoro-9-[(methylsulfinyl)methyl]-2,3,4,5-tetrahydro-12H-11,7-(azeno)-13,17-(metheno)-1,6,12,14-benzodioxadiazacyclononadecine]
- IC50 [1]: 0.113 µM
- IC50 ([2]; Mus musculus, B16-F10, 96 h): 0.03 µM

Structure (SMILES): CS(=O)(Cc1cc2cc(c1)OCCCOc1cc(F)ccc1-c1nc(ncc1F)N2)=NC(=O)C(F)(F)F (racemic) [Example 16, (rac)-N-[{[15,19-difluoro-3,4-dihydro-2H,11H-12,16-(azeno)-10,6-(metheno)-1,5,11,13-benzodioxadiazacyclooctadecin-8-yl]methyl}(methyl)oxido-λ^6-sulfanylidene]-2,2,2-trifluoroacetamide]
- IC50 [1]: 0.67 µM
- IC50 ([2]; Mus musculus, B16-F10, 96 h): 0.018 µM

Structure (SMILES): CSCc1cc2nc(c1)OCCCCOc1cc(F)ccc1-c1cc(ncc1F)N2 [Example 12, 16,20-Difluoro-9-[(methylsulfanyl)methyl]-2,3,4,5-tetrahydro-12H-11,7-(azeno)-13,17-(metheno)-1,6,12,14-benzodioxadiazacyclononadecine]
- IC50 [1]: 0.89 µM
- IC50 ([2]; Mus musculus, B16-F10, 96 h): 0.343 µM

Structure (SMILES): CS(=N)(=O)Cc1cc2cc(c1)OCCCOc1cc(F)ccc1-c1nc(ncc1F)N2 (racemic) [Example 15, (rac)-15,19-difluoro-8-[(S-methylsulfonimidoyl)methyl]-3,4-dihydro-2H,11H-12,16-(azeno)-10,6-(metheno)-1,5,11,13-benzodioxadiazacyclooctadecine]
- IC50 [1]: 0.237 µM
- IC50 ([2]; Mus musculus, B16-F10, 96 h): 0.023 µM

Structure (SMILES): CS(=N)(=O)Cc1cc2nc(c1)OCCCOc1cc(F)ccc1-c1cc(ncc1F)N2 (racemic) [Example 5, (rac)-15,19-Difluoro-8-[(S-methylsulfonimidoyl)methyl]-3,4-dihydro-2H,11H-10,6-(azeno)-12,16-(metheno)-1,5,11,13-benzodioxadiazacyclooctadecine]
- IC50 [1]: 0.02 µM
- IC50 ([2]; Mus musculus, B16-F10, 96 h): 0.004 µM

Structure (SMILES): CS(=N)(=O)Cc1cc2nc(c1)OCCCCOc1cc(F)ccc1-c1cc(ncc1F)N2 (racemic) [Example 14, (rac)-16,20-difluoro-9-[(S-methylsulfonimidoyl)methyl]-2,3,4,5-tetrahydro-12H-11,7-(azeno)-13,17-(metheno)-1,6,12,14-benzodioxadiazacyclononadecine]
- IC50 [1]: 0.162 µM
- IC50 ([2]; Mus musculus, B16-F10, 96 h): 0.022 µM

Structure (SMILES): CS(=N)(=O)Cc1cc2nc(c1)OCCCOc1cc(F)ccc1-c1cc(ncc1F)N2 (single isomer, unassigned; enantiomer 2) [Example 7, 15,19-Difluoro-8-[(S-methylsulfonimidoyl)methyl]-3,4-dihydro-2H,11H-10,6-(azeno)-12,16-(metheno)-1,5,11,13-benzodioxadiazacyclooctadecine; Enantiomer 2]
- IC50 [1]: 0.0504 µM
- IC50 [2]: 0.007 µM

— patent publication US9963464B2, “Macrocyclic compounds” (Bayer Pharma Aktiengesellschaft, priority 2014, dated 2018)
